{"source": "patent US10450327B2", "about": "“Epidithiodioxopiperazine compound or its derivatives, and the use thereof” (priority 2011, dated 2019)", "key": {"[1]": {"system": "SK-MEL-28 (SK28) melanoma cells", "assay": "Intracellular hydrogen peroxide, SK28 melanoma cells", "type": "cell-based, human", "settings": "PrxII-deficient SK28 cells, nontoxic level of GT", "protocol": "The intracellular H2O2 level was measured using 5,6-chloromethyl-2′,7′-dichlorodihydrofluorescein diacetate (CM-DCFH-DA, Invitrogen), an oxidation-sensitive fluorescent dye. Human epidermal melanocyte, SK-MEL-5, SK-MEL-28, A375 and G361 cells (3×10^5) were grown in a 35 mm culure dish and infected with retroviruses for 24 hours. After that, the cells were serum-starved for 18 hours, and stimulated with 20% FBS for 10 minutes in a phenol red-free medium. After stimulated as described above, the cells were quickly rinsed with a Krebs-Ringer solution, and incubated with 5 μM CM-DCFH-DA for 5 minutes. 2′,7′-dichlorodihydrofluorescein (DCF) fluorescence was collected for 10 seconds using an inverted Axiovert 200 fluorescence microscope (Zeiss). The relative DCF fluorescence was calculated by averaging the fluorescence intensities of 60 to 80 cells after subtracting the background fluorescence from each image using an ImageQuant™ software (GE Healthcare). The desorbed sphenoid cells were excluded from quantification.\n(§1) This proves the peroxidase activity of GT. Again, while GT treatment in the SK28 cells reduced Src/ERK activation and β-catenin phosphorylation, it increased the expression of E-cadherin (FIG. 53B). Furthermore, GT reduced the proliferation and the migration responding to serum stimulation in both SK5 and SK28 cells (FIGS. 53C and D)."}, "[2]": {"system": "VEGFR2 and ERK", "assay": "VEGF-induced signaling, immunoblot, PrxII knocked down HAECs", "type": "cell-based, human", "settings": "2 hours pretreatment, VEGF 10 minutes", "protocol": "(§2) The cells were rinsed with an ice-cold phosphate buffered saline (PBS) solution and then lysed in an extraction buffer solution containing 20 mM Hepes (pH 7.0), 1% Triton X-100, 150 mM NaCl, 10% glycerol, 1 mM EDTA, 2 mM EGTA, 1 mM DTT, 5 mM Na3VO4, 5 mM NaF, 1 mM AEBSF, aprotinin (5 μg/ml), and leupeptin (5 μg/ml). After being centrifuged at 12,000×g, the purified cell extracts were used for immunoblotting. In order to adjust the loading, the membranes were stripped by shaking them for 30 minutes at 60° C. in 67 mM Tris (pH 6.7), 2% SDS, and 100 mM 2-mercaptoethanol solution, and reprobed with an appropriate pan antibody.\n(§3) In addition, the regulatory effects of GT on the PDGFRβ- and VEGFR2-mediated signaling pathway were examined. The GT treatment in HASMCs was quite different from PDGF-induced tyrosine phosphorylation that was enhanced by the PrxII knockdown (FIG. 12a). […] Conversely, the GT treatment in HAECs restored the VEGF-dependent activation of VEGFR2 and ERK that had been diminished by the PrxII knockdown (FIG. 12b). The effects of GT in vascular cell fuction were further validated.\nLastly, the effects of GT, a representative ETP compound, on vascular cells were compared with the effects of other compounds known as anti-oxidant compounds such as N-acetylcysteine or butylated hydroxyanisole, and the results are shown in FIG. 33. Immunoblotting was performed by pretreating HAECs in which PrxII was knocked down by injecting siRNA with each compound at the concentrations indicated in the graphs for two hours, and then treating with VEGF for 10 minutes. […] These comparative experiments led the inventors of the present invention to conclude that the distinguished […] function of the ETP compounds is clearly due to the PrxII-analogous activity, and additionally to the special chemical property of the dithioketopiperazine ring."}, "[3]": {"system": "PDGFRβ, PLCγ1, VEGFR2 and ERK", "assay": "PDGF and VEGF signaling in vascular cells from PrxII−/− mouse", "type": "cell-based", "settings": "cells separated from PrxII−/− mouse, PDGF-BB or VEGF-A 10 minutes", "protocol": "Aortic vascular smooth muscle (A) and endothelial cells (B) were separated from a normal mouse and a PrxII−/− mouse, and cultured, and then treated with PDGF-BB and VEGF-A for 10 minutes each after either treating with GT or no treating. The activation of PDGFRβ, PLCγ1, VEGFR2 and ERK was analyzed using a phosphorylation-specific binding antibody for each protein."}, "[4]": {"system": "balloon injured carotid arteries", "assay": "Vascular permeability test (Evans blue inflow)", "settings": "rat, in vivo", "protocol": "Mice were injected intravenously with 100 μl of 5% Evans blue for 30 minutes and then perfused with PBS for 5 minutes. The common carotid arteries were removed from both uninjured collateral and injured ipsilateral ones. The result was dissected, opened longitudinally, and examined on a phase contrast microscope with a magnification of 20×. For quantification, the Evans blue inflowed into the blood vessel was extracted by being placed in formamide at 55° C. overnight and centrifuged for 10 minutes at 12,000 rpm. The supernatants were collected and the absorbance was measured at 620 nm. The background value of the Evans blue dye was measured at 740 nm and substracted from the values in carotid arteries. For VEGFR2 inhibition, SU5416 (20 mg/kg) was injected intraperitoneally for 3 times (Days −1, 1, and 3) before and after the balloon injury. Control injection was made of 200 μl PBS including a vehicle (5% DMSO).\nThe permeability of the repaired endothelium was examined by Evans blue inflow."}, "[5]": {"system": "Src/ERK, β-catenin, E-cadherin", "assay": "Serum-induced signaling and E-cadherin expression, SK28 cells", "type": "cell-based, human", "protocol": "as §2, §1"}, "[6]": {"system": "PDGFRβ and PLCγ1", "assay": "PDGF-induced signaling, immunoblot, PrxII knocked down HASMCs", "type": "cell-based, human", "protocol": "as §2, §3"}, "[7]": {"system": "PrxII knocked down HAECs", "assay": "Intracellular hydrogen peroxide (DCF fluorescence), PrxII knocked down HAECs", "type": "cell-based, human", "protocol": "First, the ability of GT to eliminate intracellular hydrogen peroxide in PrxII knocked down HASMCs and HAECs was tested. The cellular hydrogen peroxide production was monitored using an oxidant-sensitive fluorescence dye (2′,7′-dihydro-chlorofluorescein diacetate, H2DCF-DA)."}}}
{"smiles": "CN1C(=O)[C@]23CC4=CC=C[C@H](O)[C@H]4N2C(=O)[C@@]1(CO)SS3", "note": "[gliotoxin]", "values": [{"measurement": "level of intracellular hydrogen peroxide", "setting": "[1]", "value": "reduced"}, {"measurement": "VEGF-dependent activation of VEGFR2 and ERK", "setting": "[2]", "value": "restored"}, {"measurement": "effects on PDGF signaling in VSMC and VEGF signaling in VEC", "setting": "[3]", "value": "opposed regulatory effects"}, {"measurement": "Evans blue inflow compared to DMSO-treated injured carotid arteries", "setting": "[4]", "value": "approximately two-third reduction"}, {"measurement": "expression of E-cadherin", "setting": "[5]", "value": "increased"}, {"measurement": "Src/ERK activation and β-catenin phosphorylation", "setting": "[5]; serum stimulation", "value": "reduced"}, {"measurement": "level of PDGFRβ and PLCγ1 activation", "setting": "[6]", "value": "diminished to the level of stimulated control group cells"}, {"measurement": "basal level of intracellular hydrogen peroxide enhanced by PrxII knockdown", "setting": "[7]", "value": "completely eliminated"}]}
